Each structure is given as a SMILES string. Structures can show the parent of a compound that is named as a salt.

Data on 16 molecules can be found in patent publication US7192974B2, “Hydroxymethyl substituted dihydroisoxazole derivatives useful as antibiotic agents” (AstraZeneca AB, priority 2003, dated 2007).

One may read the melting point as the temperature of the solid-liquid transition. `C[N+](C)(C)CCOC(=O)OC[C@@H]1CC(c2ccc(-c3ccc(N4C[C@H](Cn5ccnn5)OC4=O)cc3F)cn2)=NO1` (as salt: chloride) [Example 32, 2-[({[(5S)-3-(5-{2-fluoro-4-[(5R)-2-oxo-5-(1H-1,2,3-triazol-1-ylmethyl)-1,3-oxazolidin-3-yl]phenyl}pyridin-2-yl)-4,5-dihydrolsoxazol-5-yl]methoxy}carbonyl)oxy]-N,N,N-trimethylethanaminium chloride] came in with a melting point of 180 to 190 °C.
Next, `COCCOC(=O)OC[C@@H]1CC(c2ccc(-c3ccc(N4C[C@H](Cn5ccnn5)OC4=O)cc3F)cn2)=NO1` [Example 15, [(5S)-3-(5-{2-Fluoro-4-[(5R)-2-oxo-5-(1H-1,2,3-triazol-1-ylmethyl)-1,3-oxazolidin-3-yl]phenyl}pyridin-2-yl)-4,5-dihydroisoxazol-5-yl]methyl 2-methoxyethyl carbonate]: 112 °C; `COC(=O)NCCCCC(=O)OC[C@@H]1CC(c2ccc(-c3ccc(N4C[C@H](Cn5ccnn5)OC4=O)cc3F)cn2)=NO1` [Example 10, [(5S)-3-(5-{2-Fluoro-4-[(5R)-2-oxo-5-(1H-1,2,3-triazol-1-ylmethyl)-1,3-oxazolidin-3-yl]phenyl}pyridin-2-yl)-4,5-dihydroisoxazol-5-yl]methyl 5-[(methoxycarbonyl)amino]pentanoate]: 90 °C.
The result for `CN(C)CCCC(=O)OC[C@@H]1CC(c2ccc(-c3ccc(N4C[C@H](Cn5ccnn5)OC4=O)cc3F)cn2)=NO1` [Example 9, [(5S)-3-(5-{2-Fluoro-4-[(5R)-2-oxo-5-(1H-1,2,3-triazol-1-ylmethyl)-1,3-oxazolidin-3-yl]phenyl}pyridin-2-yl)-4,5-dihydroisoxazol-5-yl]methyl 4-(dimethylamino)butanoate] reads 148 °C; that for `COCCCC(=O)OC[C@@H]1CC(c2ccc(-c3ccc(N4C[C@H](Cn5ccnn5)OC4=O)cc3F)cn2)=NO1` [Example 17, [(5S)-3-(5-{2-Fluoro-4-[(5R)-2-oxo-5-(1H-1,2,3-triazol-1-ylmethyl)-1,3-oxazolidin-3-yl]phenyl}pyridin-2-yl)-4,5-dihydroisoxazol-5-yl]methyl 4-methoxybutanoate], 154 °C.
The result for `O=C(OC[C@@H]1CC(c2ccc(-c3ccc(N4C[C@H](Cn5ccnn5)OC4=O)cc3F)cn2)=NO1)c1cnccn1` [Example 30, [(5S)-3-(5-{2-fluoro-4-[(5R)-2-oxo-5-(1H-1,2,3-triazol-1-ylmethyl)-1,3-oxazolidin-3-yl]phenyl}pyridin-2-yl)-4,5-dihydroisoxazol-5-yl]methylpyrazine-2-carboxylate] reads 205 to 226 °C; that for `COC(=O)N(C)CCCC(=O)OC[C@@H]1CC(c2ccc(-c3ccc(N4C[C@H](Cn5ccnn5)OC4=O)cc3F)cn2)=NO1` [Example 35, [(5S)-3-(5-{2-fluoro-4-[(5R)-2-oxo-5-(1H-1,2,3-triazol-1-ylmethyl)-1,3-oxazolidin-3-yl]phenyl}pyridin-2-yl)-4,5-dihydroisoxazol-5-yl]methyl 4-[(methoxycarbonyl)(methyl)amino]butanoate], 135 °C; that for `CN(CCCCC(=O)OC[C@@H]1CC(c2ccc(-c3ccc(N4C[C@H](Cn5ccnn5)OC4=O)cc3F)cn2)=NO1)C(=O)OC(C)(C)C` [Example 34, [(5S)-3-(5-{2-fluoro-4-[(5R)-2-oxo-5-(1H-1,2,3-triazol-1-ylmethyl)-1,3-oxazolidin-3-yl]phenyl}pyridin-2-yl)-4,5-dihydroisoxazol-5-yl]methyl 5-[(tert-butoxycarbonyl)(methyl)amino]pentanoate], 121 °C.
For `COCCC(=O)OC[C@@H]1CC(c2ccc(-c3ccc(N4C[C@H](Cn5ccnn5)OC4=O)cc3F)cn2)=NO1` [Example 13, [(5S)-3-(5-{2-Fluoro-4-[(5R)-2-oxo-5-(1H-1,2,3-triazol-1-ylmethyl)-1,3-oxazolidin-3-yl]phenyl}pyridin-2-yl)-4,5-dihydroisoxazol-5-yl]methyl 3-methoxypropanoate], the melting point turned out to be 149 °C.
Regarding `O=C(OC[C@@H]1CC(c2ccc(-c3ccc(N4C[C@H](Cn5ccnn5)OC4=O)cc3F)cn2)=NO1)c1ccc[n+]([O-])c1` [Example 25, [(5S)-3-(5-{2-fluoro-4-[(5R)-2-oxo-5-(1H-1,2,3-triazol-1-ylmethyl)-1,3-oxazolidin-3-yl]phenyl}pyridin-2-yl)-4,5-dihydroisoxazol-5-yl]methyl nicotinate 1-oxide], the melting point came to 255 °C.
The result for `COC(=O)OC[C@@H]1CC(c2ccc(-c3ccc(N4C[C@H](Cn5ccnn5)OC4=O)cc3F)cn2)=NO1` [Example 14, [(5S)-3-(5-{2-Fluoro-4-[(5R)-2-oxo-5-(1H-1,2,3-triazol-1-ylmethyl)-1,3-oxazolidin-3-yl]phenyl}pyridin-2-yl)-4,5-dihydroisoxazol-5-yl]methyl methyl carbonate] reads 205 °C; that for `CNCCCCC(=O)OC[C@@H]1CC(c2ccc(-c3ccc(N4C[C@H](Cn5ccnn5)OC4=O)cc3F)cn2)=NO1` (as salt: hydrochloride) [Example 37, [(5S)-3-(5-{2-fluoro-4-[(5R)-2-oxo-5-(1H-1,2,3-triazol-1-ylmethyl)-1,3-oxazolidin-3-yl]phenyl}pyridin-2-yl)-4,5-dihydroisoxazol-5-yl]methyl 5-(methylamino)pentanoate], 184 °C.
Next, `COC(=O)N(C)CCCCCC(=O)OC[C@@H]1CC(c2ccc(-c3ccc(N4C[C@H](Cn5ccnn5)OC4=O)cc3F)cn2)=NO1` [Example 36, [(5S)-3-(5-{2-fluoro-4-[(5R)-2-oxo-5-(1H-1,2,3-triazol-1-ylmethyl)-1,3-oxazolidin-3-yl]phenyl}pyridin-2-yl)-4,5-dihydroisoxazol-5-yl]methyl 6-[(methoxycarbonyl)(methyl)amino]hexanoate]: 103 °C.
Molecule `CCOC(=O)NCCCCC(=O)OCC1CC(c2ccc(-c3ccc(N4C[C@H](Cn5ccnn5)OC4=O)cc3F)cn2)=NO1` (stereo partly drawn) [Example 27, [(5S)-3-(5-{2-fluoro-4-[(5R)-2-oxo-5-(1H-1,23-triazol-1-ylmethyl)-1,3-oxazolidin-3-yl]phenyl}pyridin-2-yl)-4,5-dihydroisoxazol-5-yl]methyl 5-[(ethoxycarbonyl)amino]pentanoate] showed a melting point of 183 °C.
Turning to `COCC(=O)OC[C@@H]1CC(c2ccc(-c3ccc(N4C[C@H](Cn5ccnn5)OC4=O)cc3F)cn2)=NO1` [Example 12, [(5S)-3-(5-{2-Fluoro-4-[(5R)-2-oxo-5-(1H-1,2,3-triazol-1-ylmethyl)-1,3-oxazolidin-3-yl]phenyl}pyridin-2-yl)-4,5-dihydroisoxazol-5-yl]methyl methoxyacetate], the melting point is 170 °C.
The molecule `CCOC(=O)CCCCC(=O)OC[C@@H]1CC(c2ccc(-c3ccc(N4C[C@H](Cn5ccnn5)OC4=O)cc3F)cn2)=NO1` [Example 6, Ethyl [(5S)-3-(5-{2-fluoro-4-[(5R)-2-oxo-5-(1H-1,2,3-triazol-1-ylmethyl)-1,3oxazolidin-3-yl]phenyl}pyridin-2-yl)-4,5-dihydroisoxazol-5-yl]methyl hexanedioate] gave a melting point of 88 °C.
